Biological target: NmSiaDW (Neisseria meningitidis, UniProt O33390)
Experiment: sialyltransferase kinetics, varied acceptor
Format: biochemical
Settings: α2–6-sialyltransferase activity, fixed concentration of CMP-Neu5Ac

CC(=O)N[C@H]1[C@H]([C@H](O)[C@H](O)CO)O[C@@](OC[C@H]2O[C@H](O[C@H]3C[C@](OCCCNC(=O)OCc4ccccc4)(C(=O)O)O[C@@H]([C@H](O)[C@H](O)CO)[C@@H]3NC(C)=O)[C@H](O)[C@@H](O)[C@H]2O)(C(=O)O)C[C@@H]1O[C@H]1O[C@H](CO)[C@H](O)[C@H](O)[C@H]1O [G4]
Km: 240 ± 40 µM

Source: publication PMC7785057 (ACS catalysis, 2020)
